Experimental data reported in patent US9982005B2, “Macrolides and methods of their preparation and use” (President and Fellows of Harvard College, priority 2013, dated 2018).
In brackets after ≈: the same amount, converted by molar mass. Where two headings read alike, the source gives them in different places.

Assays:
Format in all cases: cell-based
[1] = tested on: Spn1537 S. pneumoniae ermB positive mefA positive; test: broth dilution MIC, S. pneumoniae Spn1537; conditions: Streptococcus pneumoniae
Description: (§1) We have collected MIC data for a total of 50 novel macrolides that this platform has produced against over 21 unique strains of B. subtilis, E. coli, S. aureus, S. pneumoniae, and H. influenzae, including several multidrug-resistant strains, with a special focus on macrolide resistant mechanisms (vide supra). Azithromycin was included as a control macrolide. CLSI standard procedures for broth dilution MIC determination were used. […] These genotypes can be constitutive or inducible. The finding that C4-epi (unnatural) isomers of the “azaketolide” macrolide class have enhanced activities relative to C4 natural isomers is very exciting.

[2] = tested on: EC107 E. coli ATCC25922; test: broth dilution MIC, E. coli EC107; conditions: Escherichia coli, read-out: MIC
Procedure, shortened: (§2)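 Standard CLSI broth dilution method used for MIC determination. Control: azithromycin.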

[3] = tested on: BS1723 B. subtilis BS168 WT wild type; test: broth dilution MIC, B. subtilis BS1723; conditions: Bacillus subtilis, BS1723 B. subtilis BS168 WT wild type; read-out: MIC
Procedure, shortened: as §2

[4] = tested on: K. pneumoniae strains; test: MIC against K. pneumoniae strains (Table M8); conditions: Klebsiella pneumoniae, K. pneumoniae 10031
[5] = tested on: Spn160 S. pneumoniae ermB unknown mefA positive; test: broth dilution MIC, S. pneumoniae Spn160; conditions: Streptococcus pneumoniae
Description: as §1

[6] = tested on: Spn 106 S. pneumonia ATCC49619; test: broth dilution MIC, S. pneumoniae Spn 106; conditions: Streptococcus pneumoniae; Spn 106 S. pneumonia ATCC49619; read-out: MIC
Description: as §1

[7] = tested on: S. aureus strains; test: MIC against S. aureus strains (Table M7); conditions: Staphylococcus aureus
Procedure, shortened: as §2

[8] = tested on: Spn1427 S. pneumoniae ermB positive mefA negative; test: broth dilution MIC, S. pneumoniae Spn1427; conditions: Streptococcus pneumoniae
Description: as §1

[9] = tested on: SA1707 S. aureus ermA negative msrA positive; test: broth dilution MIC, S. aureus SA1707; conditions: Staphylococcus aureus
Description: as §1

[10] = tested on: E. coli strains; test: MIC against E. coli strains (Table M7); conditions: Escherichia coli, ATCC25922, E. coli ATCC 25922
Procedure, shortened: as §2

[11] = tested on: EC882 E. coli imp; test: broth dilution MIC, E. coli EC882
Procedure, shortened: as §2

[12] = tested on: SA418 S. aureus ermA negative msrA positive; test: broth dilution MIC, S. aureus SA418; conditions: Staphylococcus aureus
Description: as §1

[13] = tested on: S. pneumoniae strains; test: MIC against S. pneumoniae strains (Tables M7, M8); conditions: Streptococcus pneumoniae
Description: CLSI standard procedures for broth dilution MIC determination were used. […] These genotypes can be constitutive or inducible.

[14] = tested on: HI175 H. influenzae ATCC49247; test: broth dilution MIC, H. influenzae HI175; conditions: Haemophilus influenzae
Description: as §1

[15] = tested on: EC878 E. coli tolC; test: broth dilution MIC, E. coli EC878; conditions: Escherichia coli
Procedure, shortened: as §2

[16] = tested on: H. influenzae strains; test: MIC against H. influenzae strains (Table M8); conditions: Haemophilus influenzae
Procedure, shortened: as §2

[17] = tested on: SA557 S. aureus ermA unknown msrA positive; test: broth dilution MIC, S. aureus SA557; conditions: Staphylococcus aureus; SA557 S. aureus ermA unknown msrA positive; read-out: MIC
Description: as §1

[18] = tested on: SA101 S. aureus ATCC29213; test: broth dilution MIC, S. aureus SA101; conditions: Staphylococcus aureus, ATCC29213, SA101 S. aureus ATCC29213; read-out: MIC
Procedure, shortened: as §2

[19] = tested on: Spn1509 S. pneumoniae ermB positive mefA negative; test: broth dilution MIC, S. pneumoniae Spn1509; conditions: Streptococcus pneumoniae; Spn1509 S. pneumoniae ermB positive mefA negative; read-out: MIC
Description: as §1

[20] = tested on: SA1708 S. aureus ermA positive msrA negative; test: broth dilution MIC, S. aureus SA1708; conditions: Staphylococcus aureus
Description: as §1

[21] = tested on: SA506 S. aureus ermA positive msrA unknown; test: broth dilution MIC, S. aureus SA506; conditions: Staphylococcus aureus
Description: as §1

[22] = tested on: A. baumannii strains; test: MIC against A. baumannii strains (Table M8); conditions: Acinetobacter baumannii, BAA747, A. baumannii BAA747-1
[23] = tested on: HI281 H. influenzae; test: broth dilution MIC, H. influenzae HI281; conditions: Haemophilus influenzae
Description: as §1

[24] = tested on: SA183 S. aureus ermA positive msrA unknown; test: broth dilution MIC, S. aureus SA183; conditions: Staphylococcus aureus
Description: as §1

[25] = tested on: BS1725 B. subtilis ermC; test: broth dilution MIC, B. subtilis BS1725; conditions: Bacillus subtilis, BS1725 B. subtilis ermC (+ery)
Procedure, shortened: as §2

[26] = tested on: E. faecalis strains; test: MIC against E. faecalis strains (Table M8); conditions: Enterococcus faecalis, E. faecalis 29212
[27] = tested on: Spn1533 S. pneumoniae ermB positive mefA positive; test: broth dilution MIC, S. pneumoniae Spn1533; conditions: Streptococcus pneumoniae
Description: as §1

[28] = tested on: S. aureus (Newman, clinical isolate); test: MIC, S. aureus Newman; conditions: Staphylococcus aureus, S. aureus (Neuman, clinical isolate), round 2
Description: as §1

[29] = tested on: E. coli (MC4100); test: MIC, E. coli MC4100; conditions: Escherichia coli, round 2, read-out: MIC
Description: as §1

[30] = ATCC29213, S. aureus ATCC 29213, read-out: MIC S. aureus (ATCC 29213)
[31] = S. aureus 506, read-out: MIC S. aureus (506)
[32] = S. aureus 1708, read-out: MIC S. aureus (1708)
[33] = USA300, S. aureus USA300, read-out: MIC S. aureus (USA300)
[34] = S. pneumoniae 160, read-out: MIC S. pneumonae (160)
[35] = S. pneumoniae 1509, read-out: MIC S. pneumoniae (1509)
[36] = S. pneumoniae 1533, read-out: MIC S. pneumoniae (1533)
[37] = S. pneumoniae 1537, read-out: MIC S. pneumoniae (1537)
[38] = read-out: MIC S. pneumoniae (49619)
[39] = H. influenzae 49247, read-out: MIC H. influenzae (49247)
[40] = H. influenzae 49766, read-out: MIC H. influenzae (49766)

CC[C@H]1OC(=O)[C@H](C)C(=O)[C@H](C)[C@@H](O[C@@H]2OC(C)CC(N(C)C)C2O)[C@](C)(OC)C[C@@H](C)CN[C@H](C)[C@H]2N(CCCCn3cc(-c4ccccn4)nn3)C(=O)O[C@]12C (stereo partly shown) [FSM-20706]
MIC [1]: > 32 µg/mL
MIC [2]: 8 µg/mL (≈ 9.83 µM)
MIC [3]: 1 µg/mL (≈ 1.23 µM)
MIC [4]: 4 µg/mL (≈ 4.91 µM)
MIC [5]: 0.0625 to 0.125 µg/mL (≈ 0.0768 to 0.154 µM)
MIC [6]: 0.0156 to 0.0312 µg/mL (≈ 0.0192 to 0.0383 µM)
MIC [7, 30]: 2 µg/mL (≈ 2.46 µM)
MIC [7, 31]: > 32 µg/mL
MIC [7, 32]: 1 µg/mL (≈ 1.23 µM)
MIC [7, 33]: 2 µg/mL (≈ 2.46 µM)
MIC [8]: > 32 µg/mL
MIC [9]: 4 µg/mL (≈ 4.91 µM)
MIC [10]: 8 µg/mL (≈ 9.83 µM)
MIC ([11]; Escherichia coli): 0.0625 µg/mL (≈ 0.0768 µM)
MIC [12]: 2 µg/mL (≈ 2.46 µM)
MIC [13, 34]: 0.125 µg/mL (≈ 0.154 µM)
MIC [13, 35]: 4 µg/mL (≈ 4.91 µM)
MIC [13, 36]: > 32 µg/mL
MIC [13, 37]: > 32 µg/mL
MIC [13, 38]: ≤ 0.0625 µg/mL
MIC [14]: 0.5 to 2 µg/mL (≈ 0.614 to 2.46 µM)
MIC [15]: 0.5 µg/mL (≈ 0.614 µM)
MIC [16, 39]: 0.5 µg/mL (≈ 0.614 µM)
MIC [16, 40]: 2 µg/mL (≈ 2.46 µM)
MIC [17]: 2 µg/mL (≈ 2.46 µM)
MIC [18]: 2 µg/mL (≈ 2.46 µM)
MIC [19]: 0.5 to 2 µg/mL (≈ 0.614 to 2.46 µM)
MIC [20]: 4 µg/mL (≈ 4.91 µM)
MIC [21]: > 32 µg/mL
MIC [22]: 32 µg/mL (≈ 39.3 µM)
MIC [23]: 4 µg/mL (≈ 4.91 µM)
MIC [24]: > 32 µg/mL
MIC [25]: 16 µg/mL (≈ 19.7 µM)
MIC [26]: 0.25 µg/mL (≈ 0.307 µM)

CC[C@H]1OC(=O)C(C)(F)C(=O)[C@@H](C)[C@@H](O[C@@H]2OC(C)CC(N(C)C)C2O)[C@](C)(OC)C[C@@H](C)CN(C)[C@H](C)[C@H]2N(CCCCn3cc(-c4nccs4)nn3)C(=O)O[C@]12C (stereo partly shown) [FSM-20705]
MIC [1]: > 32 µg/mL
MIC [2]: > 32 µg/mL
MIC [3]: 8 µg/mL (≈ 9.39 µM)
MIC ([5]; Spn160 S. pneumoniae ermB unknown mefA positive, read-out: MIC): 0.5 to 1 µg/mL (≈ 0.587 to 1.17 µM)
MIC [6]: 0.125 to 0.25 µg/mL (≈ 0.147 to 0.293 µM)
MIC [9]: 32 µg/mL (≈ 37.6 µM)
MIC [11]: 0.25 µg/mL (≈ 0.293 µM)
MIC [12]: 16 µg/mL (≈ 18.8 µM)
MIC [14]: 16 to 32 µg/mL (≈ 18.8 to 37.6 µM)
MIC [15]: 2 µg/mL (≈ 2.35 µM)
MIC [17]: 8 µg/mL (≈ 9.39 µM)
MIC [18]: 8 µg/mL (≈ 9.39 µM)
MIC [19]: 4 to 16 µg/mL (≈ 4.69 to 18.8 µM)
MIC [20]: 16 µg/mL (≈ 18.8 µM)
MIC [21]: > 32 µg/mL
MIC [27]: > 32 µg/mL
MIC [23]: > 32 µg/mL
MIC [24]: > 32 µg/mL
MIC [25]: > 32 µg/mL

CC[C@H]1OC(=O)[C@H](C)C(=O)[C@H](C)[C@@H](O[C@@H]2OC(C)CC(N(C)C)C2O)[C@](C)(OC)C[C@@H](C)CN[C@H](C)[C@H]2N(CCCCn3cc(-c4cccc(N)c4)nn3)C(=O)O[C@]12C (stereo partly shown) [FSM-20707]
MIC [28]: 0.5 µg/mL (≈ 0.604 µM)
MIC [1]: 32 µg/mL (≈ 38.6 µM)
MIC [2]: 8 µg/mL (≈ 9.66 µM)
MIC [3]: 0.5 µg/mL (≈ 0.604 µM)
MIC [4]: 2 µg/mL (≈ 2.42 µM)
MIC [5]: 0.0625 to 0.125 µg/mL (≈ 0.0755 to 0.151 µM)
MIC [6]: 0.0156 to 0.0312 µg/mL (≈ 0.0188 to 0.0377 µM)
MIC [7, 30]: 1 µg/mL (≈ 1.21 µM)
MIC ([7]; S. aureus 183, read-out: MIC S. aureus (183)): > 32 µg/mL
MIC [7, 31]: > 32 µg/mL
MIC [7, 32]: 1 µg/mL (≈ 1.21 µM)
MIC [7, 33]: 4 µg/mL (≈ 4.83 µM)
MIC [9]: 0.5 to 2 µg/mL (≈ 0.604 to 2.42 µM)
MIC [10]: 4 µg/mL (≈ 4.83 µM)
MIC ([11]; Escherichia coli): 0.0625 µg/mL (≈ 0.0755 µM)
MIC [29]: 4 µg/mL (≈ 4.83 µM)
MIC [12]: 1 µg/mL (≈ 1.21 µM)
MIC [13, 34]: 0.125 µg/mL (≈ 0.151 µM)
MIC [13, 35]: 1 µg/mL (≈ 1.21 µM)
MIC [13, 36]: > 32 µg/mL
MIC [13, 37]: > 32 µg/mL
MIC [13, 38]: ≤ 0.0625 µg/mL
MIC [14]: 1 to 2 µg/mL (≈ 1.21 to 2.42 µM)
MIC [15]: 0.5 µg/mL (≈ 0.604 µM)
MIC [16, 39]: 0.5 µg/mL (≈ 0.604 µM)
MIC [16, 40]: 2 µg/mL (≈ 2.42 µM)
MIC [17]: 0.5 to 1 µg/mL (≈ 0.604 to 1.21 µM)
MIC [19]: 0.25 to 2 µg/mL (≈ 0.302 to 2.42 µM)
MIC [20]: 1 to 2 µg/mL (≈ 1.21 to 2.42 µM)
MIC [21]: > 32 µg/mL
MIC [22]: 8 µg/mL (≈ 9.66 µM)
MIC [23]: 4 µg/mL (≈ 4.83 µM)
MIC [24]: > 32 µg/mL
MIC [25]: 8 µg/mL (≈ 9.66 µM)
MIC [26]: 0.25 µg/mL (≈ 0.302 µM)
